Results as given in the RepoRT retention time repository (doi:10.1016/j.chroma.2015.11.014).

test: RP, Agilent ZORBAX Eclipse Plus C18, 150 × 2.1 mm, 3.5 µm, 40 °C, 0.3 mL/min, estimated dead time 1.1 min; A: water + 0.1% formic acid; B: acetonitrile + 0.1% formic acid; gradient (min/%B) 0/2 1/2 2/20 16.5/98 22/98; conditions: stereoisomer not certain

Point of comparison: `O=C([O-])CC[P+](c1ccccc1)(c1ccccc1)c1ccccc1`, LC retention time 6.75 min. Against it:
- O=C(O)c1ccc(-c2ccccc2-c2nn[nH]n2)cc1 — within 1.5-fold, 8.03 min
- CCCCCCCCCCCC[N+](C)(C)C — within 1.5-fold, 10 min
- CCOc1nc2cccc(C(=O)O)c2n1Cc1ccc(-c2ccccc2-c2nn[nH]n2)cc1 — within 1.5-fold, 10 min
- O=C1OC2(c3ccc(O)cc3Oc3cc(O)ccc32)c2ccccc21 — within 1.5-fold, 9.53 min
- Cc1cc(C)nc(NS(=O)(=O)c2ccc(N)cc2)n1 — within 1.5-fold, 6.12 min
- C=C1CC23CCC4C(C)(C(=O)OC5OC(CO)C(O)C(O)C5O)CCCC4(C)C2CCC1(OC1OC(CO)C(O)C(O)C1OC1OC(CO)C(O)C(O)C1O)C3 (centres undefined) — within 1.5-fold, 8.07 min
- CSc1nc(N)nc2nc[nH]c12 — within 1.5-fold, 4.91 min
- CN(C)CC(c1ccc(O)cc1)C1(O)CCCCC1 (centres undefined) — within 1.5-fold, 5.37 min
- CCC1OC(=O)C(C)C(OC2CC(C)(OC)C(O)C(C)O2)C(C)C(OC2OC(C)CC(N(C)C)C2O)C(C)(O)CC(C)C(=O)C(C)C(O)C1(C)O (centres undefined) — within 1.5-fold, 7.85 min
- CCCCN1C=CN(C)C1C (centres undefined) — within 1.5-fold, 4.73 min
- CC(C)(C)P(=O)(O)O — within 1.5-fold, 4.63 min
- O=C(O)CCCCC(=O)O — within 1.5-fold, 5.22 min
- CC(N)c1nc2ccccc2s1 (centres undefined) — within 1.5-fold, 5.16 min
- COc1cc(NS(=O)(=O)c2ccc(N)cc2)nc(OC)n1 — within 1.5-fold, 8.09 min
- O=C(c1ccc(O)cc1O)c1ccc(O)cc1O — within 1.5-fold, 8.37 min
- COc1ccccc1Oc1c(NS(=O)(=O)c2ccc(C(C)(C)C)cc2)nc(-c2ncccn2)nc1OCCO — 1.8-fold higher, 12.1 min
- COc1ccc(C(CN)C2(O)CCCCC2)cc1 (centres undefined) — within 1.5-fold, 6.32 min
- CC12CCC3c4ccc(O)cc4CCC3C1CCC2O (centres undefined) — 1.5-fold higher, 10.4 min
- NC(=O)c1ccc[n+](C2OC(COP(=O)(O)OP(=O)([O-])OCC3OC(n4cnc5c(N)ncnc54)C(O)C3O)C(O)C2O)c1 (centres undefined) — 3.2-fold lower, 2.09 min
- CNNCc1ccc(C(=O)NC(C)C)cc1 — within 1.5-fold, 4.91 min
- c1ccc2sc(C3CCCNC3)nc2c1 (centres undefined) — within 1.5-fold, 5.62 min
- CCCCN1C=CC=CC1 — 1.6-fold lower, 4.24 min
- Cn1c(=O)[nH]c2ncn(C)c2c1=O — within 1.5-fold, 5.06 min
- Cc1cn(C2CC(N=[N+]=[N-])C(CO)O2)c(=O)[nH]c1=O (centres undefined) — within 1.5-fold, 5.9 min
- Cc1ncc(CO)c(CO)c1O — 3.2-fold lower, 2.11 min
- O=c1[nH]c(=O)c2[nH]c(=O)[nH]c2[nH]1 — 3.2-fold lower, 2.08 min
- COC1C=COC2(C)Oc3c(C)c(O)c4c(O)c(c5c(nc6cc(C)ccn65)c4c3C2=O)NC(=O)C(C)=CC=CC(C)C(O)C(C)C(O)C(C)C(OC(C)=O)C1C (centres undefined) — 1.7-fold higher, 11.8 min
- CC(C)CC(C)(O)C#CC(C)(O)CC(C)C (centres undefined) — 1.8-fold higher, 12.4 min
- CC(C)(C)OC(=O)C[P+](c1ccccc1)(c1ccccc1)c1ccccc1 — within 1.5-fold, 8.83 min
- Cn1cnc2[nH]c(=O)[nH]c(=O)c21 — 1.5-fold lower, 4.44 min
- CC1CC2C(C(O)CC3(C)C2CCC3(O)C(=O)CO)C2(C)C=CC(=O)C=C12 (centres undefined) — within 1.5-fold, 9.02 min
- CCCCCCCCc1ccc(CCC(N)(CO)CO)cc1 — 1.5-fold higher, 10.2 min
- CCP(=O)(CC)CC — within 1.5-fold, 5.15 min
- Nc1ncnc2c1ncn2C1CC(O)C(CO)O1 (centres undefined) — 2-fold lower, 3.4 min
- Nc1nc(NC2CC2)c2ncn(C3C=CC(C(=O)O)C3)c2n1 (centres undefined) — within 1.5-fold, 5.19 min
- CCC(C)C1OC2(C=CC1C)CC1CC(CC=C(C)C(OC3CC(OC)C(OC4CC(OC)C(NC(C)=O)C(C)O4)C(C)O3)C(C)C=CC=C3COC4C(O)C(C)=CC(C(=O)O1)C34O)O2 (centres undefined) — 2.4-fold higher, 16.2 min
- Nc1ccc(S(=O)(=O)Nc2ccccn2)cc1 — within 1.5-fold, 5.55 min
- CN(C)[P+](On1nnc2ccccc21)(N(C)C)N(C)C — within 1.5-fold, 5.97 min
- Cc1cccc(C(=O)O)c1 — within 1.5-fold, 8.59 min
- CC(=O)Nc1ccc(OC2OC(C(=O)O)C(O)C(O)C2O)cc1 (centres undefined) — within 1.5-fold, 4.58 min
- c1ccc2c(c1)Nc1ccccc1S2 — 1.9-fold higher, 13.1 min
- Nc1nc2c(ncn2CCC(CO)CO)c(=O)[nH]1 — 2.6-fold lower, 2.6 min
- CC(C)OP(=O)(Oc1ccccc1)Oc1ccccc1 — 1.9-fold higher, 12.8 min
- CCCc1nc2c(C)cc(-c3nc4ccccc4n3C)cc2n1Cc1ccc(-c2ccccc2C(=O)O)cc1 — within 1.5-fold, 8.86 min
- CCCCCCCCN — within 1.5-fold, 6.9 min
- CC1(C)CC(N(C=O)CCCCCCN(C=O)C2CC(C)(C)NC(C)(C)C2)CC(C)(C)N1 — within 1.5-fold, 4.67 min
- CC(C)(C)CC(C)(C)c1ccc(O)c(-n2nc3ccccc3n2)c1 — 2.9-fold higher, 19.6 min
- c1ccc(COCCC[P+](c2ccccc2)(c2ccccc2)c2ccccc2)cc1 — within 1.5-fold, 9.73 min
- COCC(C)N(C(=O)CS(=O)(=O)O)c1c(C)csc1C (centres undefined) — within 1.5-fold, 7.04 min
- CCNC(=O)C1CC(C)CCC1C(C)C (centres undefined) — 1.7-fold higher, 11.8 min
- Nc1nc2c(ncn2C2OC(CO)C(O)C2O)c(=O)[nH]1 (centres undefined) — 2.1-fold lower, 3.15 min
- Oc1ccc(Nc2ccccc2)cc1 — within 1.5-fold, 10 min
- COc1cc2c(cc1OC)C(=O)C(CC1CCN(Cc3ccccc3)CC1)C2 (centres undefined) — within 1.5-fold, 7.43 min
- CN(C)c1ccc(C=O)cc1 — within 1.5-fold, 8.87 min
- CCSc1nc2ccccc2s1 — 2-fold higher, 13.7 min
- Cn1c(=O)c2c(ncn2C)n(C)c1=O — within 1.5-fold, 5.51 min
- COC(=O)C[P+](c1ccccc1)(c1ccccc1)c1ccccc1 — within 1.5-fold, 7.72 min
- CCCC[N+](CCCC)(CCCC)Cc1ccccc1 — within 1.5-fold, 9.13 min
- CCNc1nc(NC(C)(C)C)[nH]c(=O)n1 — within 1.5-fold, 5.98 min
- CC(C)(C)P(C(C)(C)C)C(C)(C)C — within 1.5-fold, 5.22 min
- [O-]N(O)c1ccc(C[P+](c2ccccc2)(c2ccccc2)c2ccccc2)cc1 — within 1.5-fold, 8.52 min
- COC(=O)c1ccc(O)cc1 — within 1.5-fold, 7.59 min
- CN1CCC23CCCCC2C1Cc1ccc(O)cc13 (centres undefined) — within 1.5-fold, 5.97 min
- CC1c2cccc(O)c2C(O)=C2C(=O)C3(O)C(O)=C(C(N)=O)C(=O)C(N(C)C)C3C(O)C21 (centres undefined) — within 1.5-fold, 6.5 min
- COCC(O)c1ccc(OCC(O)CNC(C)C)cc1 (centres undefined) — within 1.5-fold, 5.06 min
- COc1cc(N)nc(OC)n1 — within 1.5-fold, 4.66 min
- c1ccc(C[P+](c2ccccc2)(c2ccccc2)c2ccccc2)cc1 — within 1.5-fold, 8.71 min
- CN(CC=CC#CC(C)(C)C(=O)O)Cc1cccc2ccccc12 — within 1.5-fold, 7.45 min
- CCCCCCCCCCCCCC[P+](CCCC)(CCCC)CCCC — 2.2-fold higher, 14.9 min
- CCOC(=O)NS(=O)(=O)c1ccc(C)cc1 — within 1.5-fold, 9.54 min
- CC1(C)SC2C(NC(=O)C(N)c3ccc(O)cc3)C(=O)N2C1C(=O)O (centres undefined) — within 1.5-fold, 4.71 min
- O=c1[nH]c2ccccc2s1 — within 1.5-fold, 7.78 min
- O=C(NO)c1ccccc1 — within 1.5-fold, 4.89 min
- O=C1c2ccccc2C(=O)C1c1nc2ccccc2cc1O — 2.2-fold higher, 14.7 min
- CN1C=CN(Cc2ccccc2)C1 — within 1.5-fold, 4.93 min
- CCN(CC)C(=O)c1cccc(C(=O)O)c1 — within 1.5-fold, 7.36 min
- CN(C)CCC=C1c2ccccc2CCc2ccccc21 — within 1.5-fold, 8.71 min
- O=C1NC(=O)C(c2ccccc2)(c2ccc(O)cc2)N1 (centres undefined) — within 1.5-fold, 7.26 min
- CCC(C(=O)O)N1CCCC1=O (centres undefined) — within 1.5-fold, 5.7 min
- O=c1[nH]cnc2c1cnn2C1OC(CO)C(O)C1O (centres undefined) — 1.6-fold lower, 4.31 min
- O=C1CC(c2ccc(O)cc2)Oc2cc(O)cc(O)c21 (centres undefined) — within 1.5-fold, 9.18 min
- CN1C2CCC1C(C(=O)O)C(OC(=O)c1ccccc1)C2 (centres undefined) — within 1.5-fold, 5.64 min
- COC(=O)Nc1nc2ccc(S(=O)c3ccccc3)cc2[nH]1 (centres undefined) — within 1.5-fold, 6.58 min
- CN(C)c1cccc(O)c1 — 1.7-fold lower, 4.07 min
- CCCCCCCCCCCCCCCC(=O)OCC(O)COP(=O)([O-])OCC[N+](C)(C)C (centres undefined) — 2.2-fold higher, 14.9 min
- CC1=CC(C)(C)Nc2ccccc21 — 1.9-fold higher, 12.5 min
- CCCCCCCCCCCC[N+](C)(C)CCOc1ccccc1 — 1.8-fold higher, 12 min
- CN(C)c1ccc(C(=C2C=CC(N(C)C)C=C2)c2ccccc2)cc1 (centres undefined) — within 1.5-fold, 9.29 min
- O=C(O)c1ccccc1 — within 1.5-fold, 7.56 min
- CCCCCCCCCCCCCC[P+](CCCCCC)(CCCCCC)CCCCCC — 2.5-fold higher, 17.1 min
- CC(=O)C1(O)CCC2C3CCC4=CC(=O)CCC4(C)C3CCC21C (centres undefined) — 1.7-fold higher, 11.8 min
- O=C(O)c1cc(N=Nc2ccc(S(=O)(=O)Nc3ccccn3)cc2)ccc1O — within 1.5-fold, 9.22 min
- CCN1CCCC1CNC(=O)c1cc(S(=O)(=O)CC)c(N)cc1O (centres undefined) — within 1.5-fold, 5.62 min
- CSc1ccc2c(c1)N(CCC1CCCCN1C)c1ccccc1S2 (centres undefined) — within 1.5-fold, 9.47 min
- CC(C)NCC(O)COc1ccc(CC(N)=O)cc1 (centres undefined) — within 1.5-fold, 4.62 min
- CCCCCCCC[P+](CCCCCCCC)(CCCCCCCC)CCCCCCCC — 2.4-fold higher, 16.4 min
- O=c1[nH]cnc2c1ncn2C1CC(O)C(CO)O1 (centres undefined) — 1.6-fold lower, 4.18 min
- COc1cc(Cc2cnc(N)nc2N)cc(O)c1OC — within 1.5-fold, 5.02 min
- CCCCOCCOP(=O)(OCCOCCCC)OCCOCCCC — 2.2-fold higher, 14.6 min
- CCCC[P+](CCCC)(CCCC)CC1OCCO1 — within 1.5-fold, 8.76 min
- CC(C)CC(CN)CC(=O)O (centres undefined) — within 1.5-fold, 5.17 min
- O=C1CC(c2ccccc2)Oc2ccccc21 (centres undefined) — 1.9-fold higher, 12.6 min
- NC(=O)N1c2ccccc2CCc2ccccc21 — within 1.5-fold, 9.23 min
- NC(Cc1ccc(O)cc1)C(=O)O (centres undefined) — 2.6-fold lower, 2.61 min
- COc1ccc(O)cc1 — within 1.5-fold, 6.96 min
- COCCN(C(=O)CS(=O)(=O)O)c1c(C)cccc1C — within 1.5-fold, 6.76 min
- c1ccc(CC2=NCCN2)cc1 — within 1.5-fold, 4.62 min
- COc1ccc2nc(SCc3ncc(C(=O)O)c(OC)c3C)[nH]c2c1 — within 1.5-fold, 5.75 min
- COc1ccc2nc(SCc3[nH]cc(C)c(=O)c3C)[nH]c2c1 — within 1.5-fold, 6.17 min
- S=P(c1ccccc1)(c1ccccc1)c1ccccc1 — 2.1-fold higher, 14.5 min
- COc1cc(O)c(C(=O)c2ccccc2)cc1S(=O)(=O)O — within 1.5-fold, 7.48 min
- CCCC1CC(C(=O)NC(C(C)O)C2OC(SC)C(O)C(O)C2O)N(C)C1 (centres undefined) — within 1.5-fold, 4.88 min
- COCC(C)N(C(=O)C(=O)O)c1c(C)csc1C (centres undefined) — within 1.5-fold, 8.21 min
